Article PMC9244909 (ACS Omega, 2022)
“And” between values parts separate entries of the source, which are not always exact repeats. Identical values can stand only once.

Legend:
[1] = test system: SARS-CoV-2 VOC-202012/01 strain; assay type: cell-based
[2] = cited from earlier work

SMILES	100% CPE inhibitory concentration (CPEIC100) [1]	plasma half-life [2] [h]	time of peak plasma concentrations [2] [h]	time to maximal effectiveness on the coronavirus ([1]; after starting treatment) [h]
CCC(CC)COC(=O)[C@H](C)N[P@](=O)(OC[C@H]1O[C@@](C#N)(c2ccc3c(N)ncnn23)[C@H](O)[C@@H]1O)Oc1ccccc1 [remdesivir]	25.17 µM and 25.17 ± 2.51 µM	–	–	–
O=c1nc[nH]c2c1ncn2[C@H]1CC[C@@H](CO)O1 [DDI, 9-[(2R,5S)-5-(hydroxymethyl)oxolan-2-yl]-3H-purin-6-one]	8.95 µM and 8.95 ± 0.52 µM	≤ 2	0.5 to 1.5	12 to 24
N#C[C@@]1(c2ccc3c(N)ncnn23)O[C@H](CO)[C@@H](O)[C@H]1O [GS-441524]	17.40 µM and 17.40 ± 1.83 µM	–	–	–
